# Measured values reported in US6720344B2, “Methods and compositions for stimulating osteoblast proliferation or treating malignant cell proliferation and methods for selecting osteoblast proliferation stimulants” (The Board of Regents of the University of Texas System, priority 1996, dated 2004).
# How the values were obtained:
# BMP-2 promoter = BMP-2 promoter luciferase assay in 2T3 cells (Example 1); assay type: cell-based, murine
# From the text: Such activity may be determined using any one of a number of methods known to the skilled artisan, such as by using the luciferase promoter assay described in Example 1. […] Since BMP-2 luciferase promoter constructs were transfected into immortalized murine osteoblasts (2T3 cells), the stimulation of luciferase activity is reasonably correlated to a osteoblast proliferation stimulation activity as recognized by those of ordinary skill in the art.
# This technique has been described in the scientific literature [Ghosh-Choudhury, N.; Windle, J; J.; Koop, B. A.; Harris, M. A.; Guerrero, D. L.; Wozney, J. M.; Mundy, G. R.; Harris, S. E.; “Immortalized Murine Osteoblasts Derived from BMP 2-T-Antigen Expressing Transgenic Mice” Endocrinology (1996) 137, 331-339]. […]
# Immortalized murine osteoblasts (2T3 cells) containing a bone morphogenetic protein 2 (BMP-2) promoter fragment are isolated from the calvaria of transgenic mice and cloned. […] Employing this BMP-2 promoter assay as an additional screening technique, the ED50 of compounds that stimulate luciferase activity, and, by inference, osteoblast proliferation, can be further assessed. […]
# The transfection is carried out by the calcium phosphate precipitation technique. […] Luciferase enzyme activity can be measured in 15 different clonal cell lines. […] Luciferase activity is measured using a kit from Promega and a luminometer.
compound,measurement,setting,value
"CC(C)Oc1ccc2c(c1)Cc1ccccc1C2=O [anthrone, 3-i-propoxyanthrone]","production of luciferase action / BMP-2 promoter activity, in words","BMP-2 promoter; assay for BMP-2 promoter activity, compared to control",reduced pharmacological activity
same,melting point,,123 to 124 °C
"COc1ccc(C(=O)Nc2nc3ccccc3s2)cc1 [2-(4-methoxybenzoyamino)-1,3-benzthiazole, reference compound]",EC50,"BMP-2 promoter; assay conditions of Example 1, stimulation of luciferase activity, read-out: ED50 in the promoter assay",~100 nM
